Reference: BindingDB's records for patent US20240351997 (Shanghai Qilu Pharmaceutical Research and Development Centre, 2024)

target: T1, Protein mono-ADP-ribosyltransferase TIPARP (Homo sapiens, UniProt Q7Z3E1); experiment: In Vitro Enzymology Experiment of PARP2, 3, 5A, 5B, 7, 12, and 15
T1 sequence (Q7Z3E1 whole entry): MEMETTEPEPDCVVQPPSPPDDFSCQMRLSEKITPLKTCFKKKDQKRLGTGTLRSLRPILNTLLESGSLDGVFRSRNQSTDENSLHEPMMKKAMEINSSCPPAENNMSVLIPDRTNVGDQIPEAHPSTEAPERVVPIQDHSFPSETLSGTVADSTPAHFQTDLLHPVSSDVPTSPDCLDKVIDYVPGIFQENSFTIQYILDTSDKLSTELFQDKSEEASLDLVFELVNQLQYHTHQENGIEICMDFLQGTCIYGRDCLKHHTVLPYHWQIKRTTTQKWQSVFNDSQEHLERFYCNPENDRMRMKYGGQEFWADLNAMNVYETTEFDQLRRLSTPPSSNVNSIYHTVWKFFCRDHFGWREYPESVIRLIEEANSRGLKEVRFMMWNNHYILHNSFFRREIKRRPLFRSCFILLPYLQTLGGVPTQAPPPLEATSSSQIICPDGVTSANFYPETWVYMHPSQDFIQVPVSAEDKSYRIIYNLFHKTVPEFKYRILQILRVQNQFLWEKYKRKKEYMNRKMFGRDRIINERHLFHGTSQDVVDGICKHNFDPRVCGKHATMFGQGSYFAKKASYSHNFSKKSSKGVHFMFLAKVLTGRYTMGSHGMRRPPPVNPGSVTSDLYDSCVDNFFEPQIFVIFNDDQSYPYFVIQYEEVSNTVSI
Protocol: 1. Preparation of 384-well histone-coated plate: 25 μL of histone solution was added to each well, and the plate was incubated overnight at 4° C.2. Preparation of PBST buffer, blocking buffer, and assay buffer3. The 384-well histone-coated plate was washed three times with PBST buffer. The plate was blocked by 50 μL of blocking buffer for 1 hour at room temperature. The plate was then washed three times with PBST buffer.4. Compound preparation:2000× compound was prepared in a 96-well source plate. 50 nL of the compound was transferred from the source plate to a 96-well intermediate plate, and 39.95 μL of assay buffer was added to each well. The plate was shaken well and centrifuged at 1000 rpm for 1 minute.5 μL of compound DMSO solution was transferred to each well.5. […] Detection:25 μL of Stre-HRP was added.The plate was incubated at room temperature for 1 hour and washed three times with PBS buffer.25 μL of QuantaRed Enhancer mix was added. The plate was incubated for 10 minutes.2.5 μL of QuantaRed Stop Solution was added to terminate the peroxidase reaction, and the plate was shaken for 10 to 30 seconds.7. […] Data processingUsing equation (1) to fit the data in Excel to obtain inhibition valuesinh%=(Max-Signal)/(Max-Min)*100Equation(1)Using equation (2) to fit the data in XL-Fit to obtain IC50 valuesY=Bottom+(Top-Bottom)/(1+(IC5 0/X)*HillSlopeEquation(2)Y is the percentage of inhibition, and X is the compound concentration.

| SMILES | IC50 |
| --- | --- |
| Cc1cnc(N2C[C@@H](C)N(C(=O)OCCc3c[nH]c(=O)c(C(F)(F)F)c3)C[C@H]2C)nc1 [US20240351997, Example 167] | 1.5 nM |
| O=C(Oc1cccc(-c2c[nH]c(=O)c(C(F)(F)F)c2)c1)N1CCN(c2ncc(C(F)(F)F)cn2)[C@@H](CO)C1 [US20240351997, Example 141] | 0.85 nM |
| C[C@@H]1CN(c2ncc(C3CC3)cn2)[C@H](C)CN1C(=O)OCCc1c[nH]c(=O)c(C(F)(F)F)c1 [US20240351997, Example 180] | 1 nM |
| O=C(Oc1cccc(-c2c[nH]c(=O)c(C(F)(F)F)c2)c1)N1CCN(c2ncc(C(F)(F)F)cn2)[C@@H](CO)C1 [US20240351997, Example 143] | 0.61 nM |

Further molecules by falling IC50, results first:

| IC50 | SMILES |
| --- | --- |
| 1.3 nM | Nc1cc(C(F)(F)F)cnc1N1CCN(C(=O)OCCc2c[nH]c(=O)c(C(F)(F)F)c2)CC1 [US20240351997, Example 131] |
| 0.74 nM | O=C(Oc1cccc(-c2c[nH]c(=O)c(C(F)(F)F)c2)c1)N1CCN(c2ncc(C(F)(F)F)cn2)[C@H](CO)C1 [US20240351997, Example 142] |
